{"source": "patent US10233206B2", "about": "“D-fagomine for the control of inflammatory processes related to an overactivation of the humoral immune response” (priority 2013, dated 2019)", "key": {"TNF-α": {"tested_on": "TNF-α", "experiment": "TNF-α release into the supernatant of human colon mucosa organ culture with E. coli (ELISA)", "type": "cell-based", "settings": "for TNF-alfa (1.5 ml standarized 30 mg) / TNF-alfa/ml: individual samples, listed as Fag; for TNF-alfa (1.5 ml standarized 30 mg, Average): mean of 2 samples; for TNF-alfa/ml: supernatant after 4 h", "protocol": "(§1) The aim of this investigation was to determine the effects “ex vivo” of D-fagomine on the adhesion of E. coli to human colon mucosal samples and their possible influence on the release of inflammatory mediators on a range of doses as an indication of the activation of the innate immune response.\n(§2) The approach, included the incubation of an E. coli strain with mucosal colonic samples obtained by surgery. The intention was to preserve the whole structure of mucosal samples including multiple cell populations such as epithelial cells and immunocompetent cells (macrophages, dendritic cells, plasma cells and lymphocytes), all of them keeping their original structure and disposition for cell to cell interaction. In other words, the approach was intended for mimicking the “in vivo” conditions of the colon mucosa.\n(§3) Samples of macroscopically normal colonic mucosa were obtained at surgery from patients undergoing colectomy for colonic cancer. Areas free of disease were collected in ice-cold saline and transferred immediately to the Laboratory of the Digestive Research Unit of Hospital's Vail d'Hebron (Barcelona). After washing with saline, the mucosa was dissected from the muscularis layer and pieces between 25 and 30 mg were placed surface up in culture wells (15 mm diameter wells with 500 μm bottom mesh, Netwell culture systems, Costar, Cambridge, Mass.), and orientated so that the epithelial surface was upper-most. Filters were suspended over wells containing 1.5 ml of RPMI edium (CanSera, Rexdale, Ontario, Canada) supplemented with 10% foetal calf serum (FCS; Gibco-BRL, Eggenstein, Germany), glutamine 2 mM and antibiotics: 100 U/ml penicillin, 100 microg/ml streptomycin and 50 microg/ml gentamycin, (all from Normon, Madrid, Spain). This volume is just for maintaining the humidity of the surface but not for sinking beneath the surface.\n(§4) Biopsies were incubated at 37° C. in a 95% O2+5% CO2 atmosphere and stimulated during 1 h with PMA (phorbol-12-myristate-13-acetate) and lonomycin (100/1000 ng/mL), both available from Sigma.\n(§5) Thereafter, medium was replaced by fresh RPMI 1640 medium (without glucose) supplemented with 10% FCS and sodium bicarbonate at 24 mmol/L.\n(§6) Bacteria strain E. coli ([…]) and fagomine (50, 500 and 5000 μg/mL) were added carefully to the explants. After 4 h of culture of tissues with E. coli, supernatants were collected for measurement of E. coli recovery, release of TNF-α, LDH (viability) and pH. Moreover, the tissues were rinsed, homogenized and assayed for E. coli recovery and LDH (to study tissue viability).\nConcentration of TNF-α in the supernatants was measured using a commercially available ELISA assay system for human citoquine TNF-α (Ready to Set, e-Bioscience). Cytokine concentration is expressed as pg (TNF-α) per 30 mg of tissue."}, "bacteria [1]": {"tested_on": "bacteria", "settings": "WO2011117362; cited from earlier work"}, "[2]": {"settings": "Gomez L. et al. Br. J. Nutr. 2012; cited from earlier work"}, "colon tissue": {"tested_on": "colon tissue", "experiment": "Colon viability (LDH release)", "type": "cell-based, human", "protocol": "as §3, §6\nTo estimate tissue viability, we calculated LDH (lactate-dehydrogenase) activity release in the supernatant. This method was validated by Finnie (Gut 1995). The ratio of LDH activity in the supernatant over total LDH activity in tissue homogenates was calculated and used to estimate the percentage of viable tissue. Tissue samples were homogenized in Tris/HCl (100 mmol/L, pH 7.4) and supernatants were analysed for LDH using the spectrophotometric method. Tissue viability was assessed as the release of LDH per mg of tissue."}, "E. coli 434": {"tested_on": "E. coli 434", "experiment": "Recovery of E. coli in tissue: ex vivo adhesion of E. coli to human colon mucosal samples (organ culture)", "type": "cell-based", "settings": "for E coli × 10 6 Recovery on tissue: 4 h culture with E. coli, individual samples 1 and 2; for E coli × 10 6 Standarized 30 mg, Average: mean of 2 samples; for E coli × 10 6 Standarized 30 mg: normalized to 30 mg tissue, individual samples; for E. coli recovery in tissue, Average % over control: control Ec = 100.0%", "protocol": "as §1, §2\nIn the design of the study doses of 0, 50, 500 and 5000 μg/ml of D-fagomine were tested.\nPathogenic strains of E coli were used. The main differences of pathogenic strains of E coli vs. other non pathogenic are related to their capacity to avoid the immune system.\nas §3, §4, §5, §6\nThe pathogenic E. coli reference strain (CECT 434, (Migula 1895) Castellani and Chalmers 1919) was provided by Dr. Maria Angeles Calvo (Microbiology Laboratory, Faculty of Veterinary, Autonomous University of Barcelona, Spain)\nThe day before of the experiment with tissue, the E. coli strain was inoculated in Luria Bertani broth (Pharmacy, Hospital Vail d'Hebron, Autonomous University of Barcelona, Spain) at 37° C. under aerobic conditions for 24 h. The day of the experiment bacteria were harvested in the stationary phase, cell counts in the bacterial suspension were estimated by optical density at 600 nm absorbance, and bacteria were added to the tissue-culture wells at the appropriate dilution.\nIn order to quantify only the adherent E. coli bacteria, at the end of the culture, tissues were recovered and rinsed with 2 ml of saline in an orbital mixer at low speed during 2 minutes. After rinsing, each tissue was homogenized in 1 ml of saline and dilutions were prepared to quantify the recovery of E. coli in solid agar selective media. […]"}, "bacteria [3]": {"tested_on": "bacteria", "settings": "Gomez L. et al.; Castillo J. A. et al.; cited from earlier work"}, "[4]": {"settings": "Kim H. et al. 2005; cited from earlier work"}, "[5]": {"settings": "D-fagomine 50 μg/ml with E. coli"}, "[6]": {"settings": "D-fagomine 500 μg/ml with E. coli"}, "[7]": {"settings": "D-fagomine 5000 μg/ml with E. coli"}, "[8]": {"settings": "D-fagomine 50 μg/ml, listed as Fag"}, "[9]": {"settings": "D-fagomine 500 μg/ml, listed as Fag"}}, "note": "Where “and” joins values, the source holds several entries; their conditions need not be identical. Identical values can stand only once. Entries after “also recorded” stand apart in the source; their conditions may differ.", "data": [{"molecule": "OC[C@H]1NCC[C@@H](O)[C@@H]1O", "note": "(stereo in doubt) [D-fagomine, (2R, 3R, 4R)-2-hydroxymethylpiperidine-3,4-diol]", "values": [{"measurement": "TNF-alfa release at 50 μg/mL, times higher than at 500 μg/mL", "setting": "TNF-α; 50 μg/mL versus 500 μg/mL", "value": 5, "unit": "times"}, {"measurement": "TNF-alfa release at 50 μg/mL, times higher than at 5000 μg/mL", "setting": "TNF-α; 50 μg/mL versus 5000 μg/mL", "value": "~8", "unit": "times"}, {"measurement": "Stimulation of TNF-alfa release (in words)", "setting": "TNF-α; 50, 500 and 5000 μg/ml with E. coli", "value": "capacity to stimulate the release of TNF-alfa and that the lower is the dose the more potent is such release; also recorded: stimulating the release of TNF-alfa either with respect to the control with E. coli or with respect to the control without E. coli"}, {"measurement": "TNF-alfa (1.5 ml standarized 30 mg)", "setting": "TNF-α; [5]", "value": "145.4 pg (TNF-α) per 30 mg of tissue and 164.2 pg (TNF-α) per 30 mg of tissue"}, {"measurement": "TNF-alfa (1.5 ml standarized 30 mg, Average)", "setting": "TNF-α; [5]", "value": "154.8 pg (TNF-α) per 30 mg of tissue"}, {"measurement": "TNF-alfa/ml", "setting": "TNF-α; [5]", "value": "106.2 mL⁻¹ and 98.8 mL⁻¹"}, {"measurement": "TNF-alfa (1.5 ml standarized 30 mg)", "setting": "TNF-α; [6]", "value": "31.9 pg (TNF-α) per 30 mg of tissue and 28.6 pg (TNF-α) per 30 mg of tissue"}, {"measurement": "TNF-alfa (1.5 ml standarized 30 mg, Average)", "setting": "TNF-α; [6]", "value": "30.3 pg (TNF-α) per 30 mg of tissue"}, {"measurement": "TNF-alfa/ml", "setting": "TNF-α; [6]", "value": "20.7 mL⁻¹ and 18.6 mL⁻¹"}, {"measurement": "TNF-alfa (1.5 ml standarized 30 mg)", "setting": "TNF-α; [7]", "value": "8.2 pg (TNF-α) per 30 mg of tissue and 18.1 pg (TNF-α) per 30 mg of tissue"}, {"measurement": "TNF-alfa (1.5 ml standarized 30 mg, Average)", "setting": "TNF-α; [7]", "value": "13.2 pg (TNF-α) per 30 mg of tissue"}, {"measurement": "TNF-alfa/ml", "setting": "TNF-α; [7]", "value": "13.8 mL⁻¹ and 5.7 mL⁻¹"}, {"measurement": "Bacterial adherence to mucosal surface (in words)", "setting": "bacteria [1]", "value": "inhibiting bacterial adherence to mucosal surface"}, {"measurement": "Postprandial blood glucose level and insulin secretion (in words)", "setting": "[2]", "value": "decrease postprandrial blood glucose level without stimulating insulin secretion"}, {"measurement": "Viability LDH", "setting": "colon tissue; E. coli + D-fagomine 50 μg/ml", "value": 88.20, "unit": "%"}, {"measurement": "Viability LDH", "setting": "colon tissue; E. coli + D-fagomine 500 μg/ml", "value": 91.47, "unit": "%"}, {"measurement": "Viability LDH", "setting": "colon tissue; E. coli + D-fagomine 5000 μg/ml", "value": 83.88, "unit": "%"}, {"measurement": "Effect on viability of the tissue (in words)", "setting": "colon tissue; coculture with E. coli or fagomine", "value": "does not affect the viability of the tissue"}, {"measurement": "Antiadherent effect against E. coli on colon mucosa (in words)", "setting": "E. coli 434; 50, 500 and 5000 μg/ml", "value": "antiadherent properties against E. coli in a dose dependent manner; also recorded: antiadherent effect against E. coli on the colon epithelium"}, {"measurement": "E coli × 10 6 Recovery on tissue", "setting": "E. coli 434; [8]", "value": "4 × 10 6 and 4.4 × 10 6"}, {"measurement": "E coli × 10 6 Standarized 30 mg, Average", "setting": "E. coli 434; D-fagomine 50 μg/ml", "value": "4.22 × 10 6"}, {"measurement": "E coli × 10 6 Standarized 30 mg", "setting": "E. coli 434; [8]", "value": "4.12 × 10 6 and 4.31 × 10 6"}, {"measurement": "E. coli recovery in tissue, Average % over control", "setting": "E. coli 434; D-fagomine 50 μg/ml", "value": 56.6, "unit": "%"}, {"measurement": "E coli × 10 6 Recovery on tissue", "setting": "E. coli 434; [9]", "value": "2.4 × 10 6 and 0.8 × 10 6"}, {"measurement": "E coli × 10 6 Standarized 30 mg, Average", "setting": "E. coli 434; D-fagomine 500 μg/ml", "value": "1.56 × 10 6"}, {"measurement": "E coli × 10 6 Standarized 30 mg", "setting": "E. coli 434; [9]", "value": "2.21 × 10 6 and 0.9 × 10 6"}, {"measurement": "E. coli recovery in tissue, Average % over control", "setting": "E. coli 434; D-fagomine 500 μg/ml", "value": 21.0, "unit": "%"}, {"measurement": "E coli × 10 6 Recovery on tissue", "setting": "E. coli 434; D-fagomine 5000 μg/ml", "value": "1.6 × 10 6"}, {"measurement": "E coli × 10 6 Standarized 30 mg, Average", "setting": "E. coli 434; D-fagomine 5000 μg/ml", "value": "1.47 × 10 6"}, {"measurement": "E coli × 10 6 Standarized 30 mg", "setting": "E. coli 434; D-fagomine 5000 μg/ml, listed as Fag", "value": "1.4 × 10 6 and 1.55 × 10 6"}, {"measurement": "E. coli recovery in tissue, Average % over control", "setting": "E. coli 434; D-fagomine 50 or 5000 μg/ml", "value": 19.8, "unit": "%"}, {"measurement": "Antimicrobial activity (in words)", "setting": "bacteria [3]", "value": "do not show antimicrobial activity"}]}, {"molecule": "C[C@@H]1O[C@@H](OC[C@H]2O[C@@H](Oc3c(-c4ccc(O)c(O)c4)oc4cc(O)cc(O)c4c3=O)[C@H](O)[C@@H](O)[C@@H]2O)[C@H](O)[C@H](O)[C@H]1O", "note": "[rutin]", "values": [{"measurement": "Stability and deglycosylation in the intestine after oral administration (in words)", "setting": "[4]", "value": "stable in the upper intestine, but rapidly deglycosylated to liberate the quercetin at the level of the colon"}]}]}
